In PubChem BioAssay (NCI):
Values joined by “and” are separate entries in the source; they are usually repeats but may differ in a detail not shown here. Equal values may be shown once.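 96-well plates; 48 h exposure; 5 concentrations. Endpoints by linear interpolation between flanking doses. Not reached: highest tested concentration assigned. Here, GI50 denotes the concentration required for 50% inhibition of growth. At the TGI there is no net growth.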

Legend:
Experiment in all cases: NCI tumour cell line growth inhibition, 48 h
[1] = test system: NCI-H460 lung
[2] = test system: MDA-MB-231 breast
[3] = test system: BT-549 breast
[4] = test system: M14 melanoma
[5] = test system: CAKI-1 renal
[6] = test system: SN12K1 renal
[7] = test system: HOP-18 NSCLC
[8] = test system: DLD-1 colon
[9] = test system: DMS 273 small cell lung
[10] = test system: M19-MEL melanoma
[11] = test system: HCC-2998 colon
[12] = test system: XF 498 CNS
[13] = test system: 786-0 renal

Compound | TGI [1] | TGI [2] [µM] | TGI [3] [µM] | TGI [4] [µM] | TGI [5] [µM] | TGI [6] | TGI [7] [µM] | TGI [8] | TGI [9] | TGI [10] [µM] | TGI [11] [µM] | TGI [12] | GI50 [7] [µM] | TGI [13] [µM] | GI50 [10] [µM] | GI50 [12] [µM] | GI50 [6] | GI50 [1] [µM] | GI50 [8] | GI50 [9]
CCSc1nc(N)c2c(-c3ccc(OC)c(OC)c3)c3c(nc2n1)CCCC3 | > 100 µM | > 100 | > 100 | > 100 | > 100 |  |  |  |  |  |  |  |  |  |  |  |  |  |  | 
CC1C(=O)OC2CC[N+]3(CC(=O)c4ccc(Br)cc4)CC=C(COC(=O)C(C)(O)C1(C)O)C23 (stereo not drawn) | > 375 µM |  |  |  | > 375 | > 375 µM | > 375 | > 375 µM | > 375 µM | > 375 | > 375 | > 375 µM |  |  |  |  |  |  |  | 
COC(=O)CCC(=O)CC(=O)C1=NS(=O)(=O)c2nc(S(N)(=O)=O)c(Cl)cc2N1 | > 100 µM |  |  | > 100 | > 100 |  | > 100 | > 100 µM | > 100 µM | > 100 | > 100 | > 100 µM |  |  |  |  |  |  |  | 
N#C[S-].[Nd+3].c1cnc2c(c1)ccc1cccnc12.c1cnc2c(c1)ccc1cccnc12.c1cnc2c(c1)ccc1cccnc12 |  |  |  | 6.17 | 15.1 |  | 7.53 |  |  | 3.63 | 20 | 9.61 µM | 0.787 | 11.8 | 0.566 | 4 |  |  |  | 
CN(C)c1ccc(/C=C2/SC(=S)NC2=O)cc1 | > 100 µM | > 100 | > 100 | > 100 | > 100 |  |  |  |  |  | > 100 |  |  | > 100 |  |  |  |  |  | 
Cc1cc(NC(=S)Nc2ccccc2)c(NC(=S)Nc2ccccc2)cc1C | > 61.7 µM |  |  |  | > 89.6 | > 59.1 µM | > 100 | > 100 µM | > 100 µM | > 100 | > 57.6 | 84 µM |  |  |  |  |  |  |  | 
Nc1ccccc1CCCC(=O)O | > 100 µM | > 100 | > 100 | > 100 | > 100 |  |  |  |  |  | > 100 |  |  | > 100 |  |  |  |  |  | 
CC(C)(C)NCc1cc(Nc2ccnc3cc(Cl)ccc23)cc(-c2ccc(Cl)cc2)c1O | 8.18 µM | 11.7 |  | 4 | 10.6 |  |  |  |  |  | 3.82 |  |  | 3.98 |  |  |  |  |  | 
CC1=C(C)C(=O)O[C@@H]([C@](C)(O)[C@]2(O)CC[C@@]3(O)[C@@H]4C[C@H]5O[C@]56[C@@H](O)C=CC(=O)[C@]6(C)[C@H]4CC[C@]23C)C1 | 9.22 µM and 9.66 µM |  |  |  |  | 6.39 µM and 21.6 µM | 2.44 | 3.36 µM and 3.89 µM | 5.32 µM and 3.13 µM |  | 5.76 | 0.819 µM and 0.8 µM |  |  |  | 0.082 | 1.4 µM and 5.89 µM | 2 | 0.666 µM and 0.162 µM | 1.5 µM and 0.252 µM
S=C1SC(=Nc2ccccc2)C(=Nc2ccccc2)N1c1ccccc1 | > 100 µM | > 100 | > 100 | > 100 | > 100 |  |  |  |  |  | > 100 |  |  |  |  |  |  |  |  | 
C[n+]1c2ccccc2c(CNc2ccc(S(=O)(=O)N=C(N)N)cc2)c2ccccc21 | 15 µM |  |  | 28 | 19.9 |  |  | 65.5 µM | 24.2 µM | 42 | 39.2 |  |  | 43.4 |  |  |  |  |  | 
COCO[C@@H]1C[C@H]2C(O)Nc3ccccc3C(=O)N2C1 (stereo partly drawn) | > 100 µM | > 100 |  | > 100 | > 100 |  |  |  |  |  | > 100 |  |  |  |  |  |  |  |  | 
